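Test compounds were applied to cells in 96-well plates for 48 hours at 5 doses. Definition used: TGI = concentration required for complete inhibition of growth.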
Tests used:
Assay in all cases: growth of human tumour cells (NCI), 48 h
[1] = system: A498 renal
[2] = system: MOLT-4 leukemia
[3] = system: MDA-MB-435
[4] = system: MALME-3M melanoma
[5] = system: SNB-19 CNS
[6] = system: HS 578T breast
[7] = system: OVCAR-4 ovarian
[8] = system: LOX IMVI melanoma
[9] = system: ACHN renal
[10] = system: NCI-H226 lung
[11] = system: HCT-15 colon
[12] = system: SK-MEL-5 melanoma
[13] = system: KM12 colon
[14] = system: SK-MEL-2 melanoma
[15] = system: BT-549 breast
[16] = system: RPMI-8226 leukemia
[17] = system: SR leukemia
[18] = system: HT29 colon
[19] = system: MDA-N
[20] = system: SNB-75 CNS

Row | Structure (SMILES) | TGI [1] [µM] | TGI [2] [µM] | TGI [3] [µM] | TGI [4] [µM] | TGI [5] [µM] | TGI [6] [µM] | TGI [7] [µM] | TGI [8] [µM] | TGI [9] [µM] | TGI [10] [µM] | TGI [11] [µM] | TGI [12] [µM] | TGI [13] [µM] | TGI [14] [µM] | TGI [15] [µM] | TGI [16] [µM] | TGI [17] [µM] | TGI [18] [µM] | TGI [19] [µM] | TGI [20] [µM]
1 | CC1=CCC(C)=Nc2nc3ccccc3n21 | > 100 | > 100 | > 100 | > 100 | > 100 | > 100 | > 100 | > 100 | > 100 | > 100 | > 100 | > 100 | > 100 | > 100 | > 100 | > 100 | > 100 | > 100 |  | 
2 | O=[N+]([O-])/C(C(Cl)=C(Cl)Cl)=C(/Nc1ccccc1)SCc1ccccc1 | 46.7 | 37.3 | 31.7 | 30.1 | 58.4 | 75.5 | 66.8 | 39.1 | 77.4 | 44.6 | 29.7 | 37 | 32.5 | 44.7 |  | 37.7 | 52.3 | 66.1 | 33.9 | 
3 | Oc1cc(O)cc(-c2nc3cc(F)ccc3s2)c1 | 47.1 |  | > 100 | > 100 | 97.2 |  | 63.7 | 39.3 | 81.3 | 64.2 | 61.6 | 37.1 | 52.1 | 45.1 | 53.2 | 50.2 |  | 44.8 | > 100 | 
4 | C/C(=N/NC(=S)Nc1ccc(Cl)cc1)c1cccc(/C(C)=N\NC(=S)Nc2ccc(Cl)cc2)n1 | 79.5 | 16.7 | 55.8 | 36 | > 100 |  | > 100 | 26.8 | 40.3 | 47.5 | > 100 | 18.6 | > 100 | 49.2 |  | 39.7 | 7.25 | > 100 | > 100 | > 100
5 | CCC1CCc2c(c(=O)oc3c2cc(OC)c2cccc(OC)c23)C1 (configuration not stated) | > 100 | > 100 |  | > 100 | > 100 |  | > 100 |  | > 100 | > 100 | > 100 | 80.9 | > 100 | > 100 |  | > 100 | > 100 | > 100 |  | > 100
6 | COc1ccc(-c2nc(-c3cc4c(ccc5ccccc54)oc3=O)cs2)cc1 |  | > 100 | > 100 |  | > 100 | > 100 | > 100 | > 100 | > 100 | > 100 | > 100 | > 100 | > 100 | > 100 | > 100 | > 100 | > 100 | > 100 |  | > 100
7 | O=C(O)c1nc2ccc(C(F)(F)F)cc2nc1NCc1ccc(F)cc1 | 55.4 | 33.2 | > 100 |  | > 100 |  | > 100 | 36.5 | > 100 | > 100 | 87.5 | 35.2 | > 100 | 45.1 | 90.2 | > 100 | 42 |  | 76.9 | 94.9
8 | N#CC1=C(Nc2ccccc2)SC=C(c2ccccc2)NC1=NCc1ccccc1 | > 100 | > 100 | > 100 | > 100 | > 100 |  | > 100 |  | > 100 |  | > 100 | > 100 | > 100 | > 100 |  | > 100 | 59.1 |  | > 100 | 
9 | CC1C[C@]2(C)C(=NCCN)Nc3ccccc3[C@@H]2N(C)c2ccccc21 (some centres not stated) | 30.5 | > 100 | 22.7 | 9.64 | 27.7 | 38.2 | 30.4 | 28.2 | 29.9 | 30.2 | 34.5 | 26.8 | 30 | 34.3 |  | 47.4 | 8.73 | 13.2 | 27.8 | 13.2
10 | Nc1nc(NCC2(CO)CC2)cc(=O)[nH]1 | > 100 | > 100 | > 100 | > 100 | > 100 | > 100 | > 100 | > 100 | > 100 | > 100 | > 100 | > 100 | > 100 | > 100 | > 100 | > 100 | > 100 | > 100 |  | > 100
11 | N#Cc1[nH]c(=S)[nH]c1N | > 100 |  | > 100 | > 100 | > 100 | > 100 | > 100 | > 100 | > 100 | > 100 | > 100 | > 100 |  | > 100 | > 100 |  | > 100 | > 100 |  | > 100

Source: PubChem BioAssay (NCI)
